± gives the uncertainty stated by the source.
Experiment: xn = mol fraction of the nth substance listed

CN(C)c1ccccc1 + CC(=O)CC(C)C
viscosity [mPa·s], 101 kPa
Settings	303.15 K	308.15 K
x1 = 0.0745	0.632 ± 0.025	0.557 ± 0.023
x1 = 0.1256	0.711 ± 0.028	0.628 ± 0.025
x1 = 0.1856	0.8 ± 0.031	0.711 ± 0.028
x1 = 0.2652	0.906 ± 0.034	0.813 ± 0.031
x1 = 0.3202	0.971 ± 0.036	0.875 ± 0.033
x1 = 0.4012	1.052 ± 0.039	0.953 ± 0.036
x1 = 0.4852	1.108 ± 0.041	1.013 ± 0.038
x1 = 0.5612	1.143 ± 0.042	1.049 ± 0.039
x1 = 0.6504	1.165 ± 0.042	1.072 ± 0.039
x1 = 0.7214	1.167 ± 0.042	1.079 ± 0.04
x1 = 0.7958	1.168 ± 0.042	1.079 ± 0.04
x1 = 0.8625	1.169 ± 0.042	1.081 ± 0.04
x1 = 0.9125	1.17 ± 0.043	1.086 ± 0.04

CC(CC(C)(C)C)CC(C)(C)C + Cc1cc(C)cc(C)c1
viscosity [mPa·s], 102 kPa
Settings	x2 = 0.1002	x2 = 0.2001	x2 = 0.3009	x2 = 0.4006	x2 = 0.4977	x2 = 0.6	x2 = 0.7	x2 = 0.8001	x2 = 0.9001
293.15 K	1.22 ± 0.02	1.13 ± 0.02	1.05 ± 0.02	0.972 ± 0.021	0.908 ± 0.021	0.848 ± 0.021	0.805 ± 0.021	0.761 ± 0.021	0.727 ± 0.021
303.15 K	1.03 ± 0.02	0.96 ± 0.021	0.893 ± 0.021	0.837 ± 0.021	0.789 ± 0.021	0.738 ± 0.021	0.697 ± 0.021	0.658 ± 0.021	0.63 ± 0.021
313.15 K	0.892 ± 0.021	0.831 ± 0.021	0.782 ± 0.021	0.732 ± 0.021	0.691 ± 0.021	0.65 ± 0.021	0.614 ± 0.021	0.58 ± 0.021	0.555 ± 0.021
323.15 K	0.781 ± 0.021	0.738 ± 0.021	0.693 ± 0.021	0.649 ± 0.021	0.613 ± 0.021	0.578 ± 0.021	0.546 ± 0.021	0.517 ± 0.021	0.494 ± 0.021

CCCCN(CCCC)CCCC + CCCCCCCCCCO
viscosity [mPa·s], 101.3 kPa
Settings	x1 = 0.0952	x1 = 0.1901	x1 = 0.2866	x1 = 0.3816	x1 = 0.5195	x1 = 0.6185	x1 = 0.7198	x1 = 0.8029	x1 = 0.9006
303.15 K	7.192 ± 0.073	5.845 ± 0.062	4.754 ± 0.053	3.874 ± 0.043	2.91 ± 0.033	2.358 ± 0.027	1.928 ± 0.022	1.658 ± 0.019	1.378 ± 0.016
313.15 K	5.659 ± 0.061	4.596 ± 0.051	3.721 ± 0.042	3.026 ± 0.034	2.288 ± 0.026	1.892 ± 0.022	1.586 ± 0.019	1.388 ± 0.017	1.175 ± 0.014

CN(C)c1ccccc1 + CC(C)(C)O
303.15 K, 101 kPa
Settings	viscosity [mPa·s]
x1 = 0.0534	3.315 ± 0.037
x1 = 0.1054	3.242 ± 0.035
x1 = 0.1689	3.141 ± 0.033
x1 = 0.2256	3.041 ± 0.03
x1 = 0.2958	2.907 ± 0.028
x1 = 0.3612	2.775 ± 0.025
x1 = 0.4502	2.587 ± 0.022
x1 = 0.5246	2.423 ± 0.02
x1 = 0.6589	2.112 ± 0.017
x1 = 0.7421	1.908 ± 0.015
x1 = 0.8046	1.747 ± 0.014
x1 = 0.8645	1.584 ± 0.013
x1 = 0.9472	1.34 ± 0.013

CN(C)c1ccccc1 + CC(C)O
303.15 K, 101 kPa
Settings	viscosity [mPa·s]
x1 = 0.0564	1.727 ± 0.016
x1 = 0.1136	1.655 ± 0.015
x1 = 0.1989	1.56 ± 0.015
x1 = 0.2689	1.492 ± 0.014
x1 = 0.3245	1.439 ± 0.014
x1 = 0.3767	1.401 ± 0.013
x1 = 0.4258	1.369 ± 0.013
x1 = 0.4878	1.33 ± 0.013
x1 = 0.5655	1.288 ± 0.013
x1 = 0.6305	1.259 ± 0.012
x1 = 0.7385	1.22 ± 0.012
x1 = 0.8187	1.199 ± 0.012
x1 = 0.9243	1.18 ± 0.012

CCCCCCc1ccccc1 + CCCCCCCCCCCCCCCC
viscosity [mPa·s], 102 kPa
Settings	x1 = 0.1344	x1 = 0.259	x1 = 0.3742	x1 = 0.4819	x1 = 0.5823	x1 = 0.6747	x1 = 0.765	x1 = 0.848	x1 = 0.9262
293.15 K	3.12 ± 0.02	2.85 ± 0.03	2.63 ± 0.02	2.43 ± 0.02	2.25 ± 0.02	2.11 ± 0.02	1.98 ± 0.01	1.86 ± 0.01	1.77 ± 0.02
303.15 K	2.49 ± 0.02	2.3 ± 0.02	2.13 ± 0.02	1.98 ± 0.01	1.85 ± 0.01	1.74 ± 0.01	1.64 ± 0.01	1.55 ± 0.01	1.47 ± 0.01
313.15 K	2.04 ± 0.02	1.9 ± 0.02	1.76 ± 0.01	1.65 ± 0.01	1.55 ± 0.01	1.46 ± 0.01	1.38 ± 0.01	1.31 ± 0.01	1.25 ± 0.01
323.15 K	1.7 ± 0.01	1.59 ± 0.01	1.49 ± 0.01	1.4 ± 0.01	1.32 ± 0.01	1.25 ± 0.01	1.18 ± 0.01	1.13 ± 0.01	1.08 ± 0.01

C=CC#N + CC(=O)c1ccccc1
308.15 K, 101 kPa
Settings	viscosity [mPa·s]
x2 = 0.0582	0.3608 ± 0.004
x2 = 0.1109	0.3946 ± 0.0042
x2 = 0.1957	0.4532 ± 0.0047
x2 = 0.2736	0.5132 ± 0.0053
x2 = 0.3939	0.62 ± 0.0062
x2 = 0.4591	0.676 ± 0.0067
x2 = 0.5681	0.7844 ± 0.0076
x2 = 0.6945	0.9222 ± 0.0087
x2 = 0.7954	1.052 ± 0.0099

CC(=O)[O-].CCCC[NH3+] + O
Settings	viscosity [mPa·s]
293.15 K, 101 kPa, x1 = 0.4013	53.35 ± 1.1

CC(=O)CC(C)=O + CCCC(C)O
298.15 K, 101 kPa
Settings	viscosity [mPa·s]
x1 = 0.1	2.324 ± 0.022
x1 = 0.2	1.65 ± 0.019
x1 = 0.3	1.276 ± 0.017
x1 = 0.4	1.082 ± 0.016
x1 = 0.5	0.983 ± 0.016
x1 = 0.6	0.918 ± 0.016
x1 = 0.7	0.855 ± 0.015
x1 = 0.8	0.787 ± 0.015
x1 = 0.9	0.725 ± 0.015

CC1CCC(O)CC1 (centres undefined) + c1ccccc1
293.15 K, 101 kPa
Settings	viscosity [mPa·s]
x2 = 0.33	5.3 ± 0.2
x2 = 0.5	2.4 ± 0.1
x2 = 0.6	1.8 ± 0.1
x2 = 0.667	1.6 ± 0.1
x2 = 0.75	1.4 ± 0.1
x2 = 0.8	1.3 ± 0.1

CCCCN(CCCC)CCCC + C=C(C)C(=O)OC
303.15 K, 101 kPa
Settings	viscosity [mPa·s]
x2 = 0.21	0.9849 ± 0.0085
x2 = 0.3945	0.8491 ± 0.0076
x2 = 0.4886	0.7874 ± 0.0073
x2 = 0.6041	0.7144 ± 0.0068
x2 = 0.7985	0.6078 ± 0.0062

CCCCOC(=O)c1ccccc1C(=O)OCCCC + Oc1cccc(O)c1
Settings	viscosity [mPa·s]
293.15 K, 101 kPa, x2 = 0.35	69.1 ± 2.8

O=C1CCCCCO1 + CNC(C)=O
viscosity [mPa·s], 101 kPa
Settings	x2 = 0.0922	x2 = 0.2381	x2 = 0.3459	x2 = 0.4411	x2 = 0.5823	x2 = 0.6289	x2 = 0.6641	x2 = 0.7792	x2 = 0.9465
303.15 K	4.458 ± 0.29	3.929 ± 0.26	3.6 ± 0.24	3.366 ± 0.22	3.201 ± 0.21	3.187 ± 0.21	3.218 ± 0.22	3.308 ± 0.22	3.629 ± 0.24
308.15 K	3.994 ± 0.26	3.609 ± 0.24	3.358 ± 0.22	3.162 ± 0.21	2.962 ± 0.2	2.921 ± 0.2	2.912 ± 0.2	2.895 ± 0.2	3.062 ± 0.21
313.15 K	3.543 ± 0.24	3.135 ± 0.21	2.944 ± 0.2	2.76 ± 0.19	2.602 ± 0.18	2.552 ± 0.17	2.532 ± 0.17	2.527 ± 0.17	2.773 ± 0.19
318.15 K	3.182 ± 0.21	2.761 ± 0.19	2.616 ± 0.18	2.479 ± 0.17	2.372 ± 0.16	2.33 ± 0.16	2.348 ± 0.16	2.349 ± 0.16	2.453 ± 0.17
